Columns and labels:
[1] = Intrinsic clearance in rat liver microsomes at 1 uM assessed per mg protein at 37 degC up to 30 mins in presence of NADPH by HPLC-MS analysis; assay type: ADME, microsome; details: read-out: CLH
[2] = molecular target: Cytochrome P450 2C9 (Homo sapiens, UniProt P11712); test: Inhibition of CYP2C9 in human liver microsomes using diclofenac as substrate measured after 10 mins in presence of NADPH by LC-MS/MS analysis
[3] = Efflux ratio of apparent permeability from basolateral to apical over apical to basolateral side in MDCK-MDR1 cells at 5 uM after 60 mins by LC-MS/MS analysis; details: dog
[4] = molecular target: Cytochrome P450 3A4 (Homo sapiens, UniProt P08684); test: Inhibition of CYP3A4 in human liver microsomes using midazolam as substrate measured after 7 mins in presence of NADPH by LC-MS/MS analysis
[5] = molecular target: T1, Sodium- and chloride-dependent glycine transporter 2 (Homo sapiens, UniProt Q9Y345); test: Inhibition of recombinant human GlyT2 expressed in HEK293 cells assessed as reduction in [14C]glycine uptake after 2 hrs by microbeta scintillation counting method; assay type: cell-based
T1 sequence (Q9Y345 whole entry): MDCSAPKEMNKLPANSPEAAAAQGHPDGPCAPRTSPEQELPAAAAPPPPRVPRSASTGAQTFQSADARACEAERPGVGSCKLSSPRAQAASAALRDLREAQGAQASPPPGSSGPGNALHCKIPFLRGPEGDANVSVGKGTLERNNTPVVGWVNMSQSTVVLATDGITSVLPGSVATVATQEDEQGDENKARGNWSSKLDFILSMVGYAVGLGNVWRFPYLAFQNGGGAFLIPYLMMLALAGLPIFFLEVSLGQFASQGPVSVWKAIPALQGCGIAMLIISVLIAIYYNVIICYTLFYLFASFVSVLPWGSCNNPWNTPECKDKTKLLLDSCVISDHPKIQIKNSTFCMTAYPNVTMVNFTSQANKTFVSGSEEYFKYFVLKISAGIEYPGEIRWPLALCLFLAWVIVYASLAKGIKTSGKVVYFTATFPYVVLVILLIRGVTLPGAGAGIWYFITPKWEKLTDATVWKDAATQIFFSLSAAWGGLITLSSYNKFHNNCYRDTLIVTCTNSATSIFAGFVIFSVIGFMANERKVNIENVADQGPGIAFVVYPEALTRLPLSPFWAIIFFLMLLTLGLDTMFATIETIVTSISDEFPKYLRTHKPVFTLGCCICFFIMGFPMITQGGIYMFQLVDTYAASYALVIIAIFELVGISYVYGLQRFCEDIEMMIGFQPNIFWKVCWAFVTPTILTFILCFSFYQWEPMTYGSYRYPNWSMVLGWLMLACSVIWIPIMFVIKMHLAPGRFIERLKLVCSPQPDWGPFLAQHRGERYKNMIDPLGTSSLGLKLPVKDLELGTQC

[6] = molecular target: T2, Sodium- and chloride-dependent glycine transporter 1 (Rattus norvegicus, UniProt P28572); test: Inhibition of GlyT1 in primary rat cortical neurons assessed as reduction in [14C]glycine uptake after 2 hrs by microbeta scintillation counting method
T2 sequence (P28572 whole entry): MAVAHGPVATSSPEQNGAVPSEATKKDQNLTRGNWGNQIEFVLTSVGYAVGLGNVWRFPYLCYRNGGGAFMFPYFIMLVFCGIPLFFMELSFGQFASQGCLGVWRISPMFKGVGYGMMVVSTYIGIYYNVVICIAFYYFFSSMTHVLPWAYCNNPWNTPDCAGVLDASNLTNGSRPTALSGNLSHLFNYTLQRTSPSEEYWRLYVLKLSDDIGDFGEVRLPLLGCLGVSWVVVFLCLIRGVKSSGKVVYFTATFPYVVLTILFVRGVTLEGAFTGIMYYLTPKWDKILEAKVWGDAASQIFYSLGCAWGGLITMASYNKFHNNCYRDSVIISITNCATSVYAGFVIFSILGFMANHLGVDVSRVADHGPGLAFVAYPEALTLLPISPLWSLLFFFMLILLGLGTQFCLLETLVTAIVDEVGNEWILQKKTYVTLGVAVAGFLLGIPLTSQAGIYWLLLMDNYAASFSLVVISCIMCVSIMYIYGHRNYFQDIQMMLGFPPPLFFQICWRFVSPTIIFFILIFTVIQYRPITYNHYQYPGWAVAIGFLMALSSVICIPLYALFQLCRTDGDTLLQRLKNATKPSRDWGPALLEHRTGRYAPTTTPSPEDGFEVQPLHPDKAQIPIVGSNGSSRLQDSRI

[7] = Intrinsic clearance in human liver microsomes at 1 uM assessed per mg protein at 37 degC up to 60 mins in presence of NADPH by HPLC-MS analysis; assay type: ADME, microsome; details: read-out: CLH
[8] = molecular target: Voltage-gated inwardly rectifying potassium channel KCNH2 (Homo sapiens, UniProt Q12809); test: Inhibition of human ERG expressed in CHO cells at 10 nM to 10 uM at holding potential of -80 mV measured after 5 mins by QPatch automated patch clamp electrophysiology method
[9] = molecular target: Cytochrome P450 2C19 (Homo sapiens, UniProt P33261); test: Inhibition of CYP2C19 in human liver microsomes using S-mephenytoin as substrate measured after 10 mins in presence of NADPH by LC-MS/MS analysis
[10] = molecular target: Cytochrome P450 2D6 (Homo sapiens, UniProt P10635); test: Inhibition of CYP2D6 in human liver microsomes using dextromethorphan as substrate measured after 10 mins in presence of NADPH by LC-MS/MS analysis
[11] = Apparent permeability from apical to basolateral side in MDCK-MDR1 cells monolayer at 5 uM after 60 mins by LC-MS/MS analysis; details: dog
[12] = molecular target: T3, Cytochrome P450 1A2 (Homo sapiens, UniProt P05177); test: Inhibition of CYP1A2 in human liver microsomes using phenacetin as substrate measured after 10 mins in presence of NADPH by LC-MS/MS analysis
T3 sequence (P05177 whole entry): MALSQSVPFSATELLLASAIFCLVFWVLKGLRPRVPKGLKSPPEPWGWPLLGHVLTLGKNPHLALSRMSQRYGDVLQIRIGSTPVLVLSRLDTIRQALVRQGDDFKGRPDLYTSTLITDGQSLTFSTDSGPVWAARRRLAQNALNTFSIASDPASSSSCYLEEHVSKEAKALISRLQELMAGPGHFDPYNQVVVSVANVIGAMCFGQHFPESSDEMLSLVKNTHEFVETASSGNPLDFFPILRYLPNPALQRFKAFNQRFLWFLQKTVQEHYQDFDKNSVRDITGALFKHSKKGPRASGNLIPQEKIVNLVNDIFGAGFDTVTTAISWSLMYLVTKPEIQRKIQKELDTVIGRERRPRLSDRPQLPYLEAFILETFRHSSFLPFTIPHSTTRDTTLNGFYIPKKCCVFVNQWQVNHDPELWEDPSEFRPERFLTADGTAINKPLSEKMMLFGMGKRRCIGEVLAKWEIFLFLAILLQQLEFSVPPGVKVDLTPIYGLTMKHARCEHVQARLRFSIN

[13] = molecular target: T4, Sodium- and chloride-dependent glycine transporter 1 (Homo sapiens, UniProt P48067); test: Inhibition of recombinant human GlyT1c expressed in HEK293 cells assessed as reduction in [14C]glycine uptake after 2 hrs by microbeta scintillation counting method; assay type: cell-based
T4 sequence (P48067 whole entry): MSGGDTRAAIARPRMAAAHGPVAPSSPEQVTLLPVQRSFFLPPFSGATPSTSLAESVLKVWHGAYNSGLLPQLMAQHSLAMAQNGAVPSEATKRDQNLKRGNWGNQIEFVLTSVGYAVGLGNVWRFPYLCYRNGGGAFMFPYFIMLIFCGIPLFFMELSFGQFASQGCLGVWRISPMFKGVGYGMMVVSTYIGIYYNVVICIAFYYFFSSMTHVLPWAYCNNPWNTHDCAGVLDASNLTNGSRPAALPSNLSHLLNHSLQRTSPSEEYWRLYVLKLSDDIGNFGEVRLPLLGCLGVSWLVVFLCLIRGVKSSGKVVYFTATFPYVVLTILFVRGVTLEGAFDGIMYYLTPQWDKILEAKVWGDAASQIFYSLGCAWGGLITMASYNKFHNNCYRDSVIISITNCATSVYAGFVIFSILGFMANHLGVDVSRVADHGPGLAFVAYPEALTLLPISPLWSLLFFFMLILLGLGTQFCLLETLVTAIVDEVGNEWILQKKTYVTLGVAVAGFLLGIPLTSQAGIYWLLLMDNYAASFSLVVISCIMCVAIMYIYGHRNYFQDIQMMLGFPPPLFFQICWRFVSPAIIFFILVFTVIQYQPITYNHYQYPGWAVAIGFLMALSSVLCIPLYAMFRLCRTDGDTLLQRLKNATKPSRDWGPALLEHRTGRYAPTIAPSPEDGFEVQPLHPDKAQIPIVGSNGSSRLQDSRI

[14] = Apparent permeability from basolateral to apical side in MDCK-MDR1 cells monolayer at 5 uM after 60 mins by LC-MS/MS analysis; details: dog

Chain of Cytochrome P450 2C9 (P11712 whole entry): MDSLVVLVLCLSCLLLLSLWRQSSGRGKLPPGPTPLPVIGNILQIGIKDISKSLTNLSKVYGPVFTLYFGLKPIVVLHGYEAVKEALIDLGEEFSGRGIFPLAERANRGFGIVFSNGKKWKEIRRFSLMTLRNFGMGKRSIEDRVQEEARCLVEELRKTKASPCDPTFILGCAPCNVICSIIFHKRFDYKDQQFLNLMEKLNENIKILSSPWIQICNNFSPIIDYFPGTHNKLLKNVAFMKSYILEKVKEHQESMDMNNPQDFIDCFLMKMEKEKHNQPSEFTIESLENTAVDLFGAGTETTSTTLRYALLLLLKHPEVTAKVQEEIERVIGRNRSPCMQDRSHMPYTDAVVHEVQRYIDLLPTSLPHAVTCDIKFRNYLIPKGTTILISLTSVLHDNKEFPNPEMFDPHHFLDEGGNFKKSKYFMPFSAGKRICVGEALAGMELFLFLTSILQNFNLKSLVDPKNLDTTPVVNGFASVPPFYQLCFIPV
Chain of Cytochrome P450 3A4 (P08684 whole entry): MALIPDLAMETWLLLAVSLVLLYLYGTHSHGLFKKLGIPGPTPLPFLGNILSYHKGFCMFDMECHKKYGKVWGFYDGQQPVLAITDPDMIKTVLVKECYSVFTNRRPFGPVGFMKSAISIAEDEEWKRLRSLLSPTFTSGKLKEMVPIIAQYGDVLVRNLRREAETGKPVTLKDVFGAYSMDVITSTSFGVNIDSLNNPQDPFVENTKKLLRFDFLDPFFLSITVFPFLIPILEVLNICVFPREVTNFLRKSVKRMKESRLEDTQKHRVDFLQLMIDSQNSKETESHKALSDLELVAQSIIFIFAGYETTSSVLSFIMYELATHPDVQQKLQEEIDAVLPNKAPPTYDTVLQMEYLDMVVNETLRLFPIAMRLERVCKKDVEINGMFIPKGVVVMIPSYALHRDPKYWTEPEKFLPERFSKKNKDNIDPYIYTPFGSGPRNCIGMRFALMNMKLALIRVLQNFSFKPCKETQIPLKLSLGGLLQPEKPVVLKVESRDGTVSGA
Chain of Cytochrome P450 2D6 (P10635 whole entry): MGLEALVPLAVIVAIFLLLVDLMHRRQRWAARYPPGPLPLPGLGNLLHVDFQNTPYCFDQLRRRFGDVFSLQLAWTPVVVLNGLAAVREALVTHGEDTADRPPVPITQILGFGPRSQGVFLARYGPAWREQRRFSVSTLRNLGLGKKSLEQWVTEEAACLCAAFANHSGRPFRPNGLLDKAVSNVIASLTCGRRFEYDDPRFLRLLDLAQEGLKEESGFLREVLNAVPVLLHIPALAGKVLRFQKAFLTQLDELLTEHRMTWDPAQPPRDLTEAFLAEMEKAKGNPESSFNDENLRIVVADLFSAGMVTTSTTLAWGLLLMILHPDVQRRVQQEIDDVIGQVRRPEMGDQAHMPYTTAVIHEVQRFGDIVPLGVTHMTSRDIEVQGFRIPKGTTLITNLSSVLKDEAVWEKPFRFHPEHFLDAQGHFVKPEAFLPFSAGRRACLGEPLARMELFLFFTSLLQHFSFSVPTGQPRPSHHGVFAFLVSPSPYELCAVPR
Chain of Voltage-gated inwardly rectifying potassium channel KCNH2 (Q12809 whole entry): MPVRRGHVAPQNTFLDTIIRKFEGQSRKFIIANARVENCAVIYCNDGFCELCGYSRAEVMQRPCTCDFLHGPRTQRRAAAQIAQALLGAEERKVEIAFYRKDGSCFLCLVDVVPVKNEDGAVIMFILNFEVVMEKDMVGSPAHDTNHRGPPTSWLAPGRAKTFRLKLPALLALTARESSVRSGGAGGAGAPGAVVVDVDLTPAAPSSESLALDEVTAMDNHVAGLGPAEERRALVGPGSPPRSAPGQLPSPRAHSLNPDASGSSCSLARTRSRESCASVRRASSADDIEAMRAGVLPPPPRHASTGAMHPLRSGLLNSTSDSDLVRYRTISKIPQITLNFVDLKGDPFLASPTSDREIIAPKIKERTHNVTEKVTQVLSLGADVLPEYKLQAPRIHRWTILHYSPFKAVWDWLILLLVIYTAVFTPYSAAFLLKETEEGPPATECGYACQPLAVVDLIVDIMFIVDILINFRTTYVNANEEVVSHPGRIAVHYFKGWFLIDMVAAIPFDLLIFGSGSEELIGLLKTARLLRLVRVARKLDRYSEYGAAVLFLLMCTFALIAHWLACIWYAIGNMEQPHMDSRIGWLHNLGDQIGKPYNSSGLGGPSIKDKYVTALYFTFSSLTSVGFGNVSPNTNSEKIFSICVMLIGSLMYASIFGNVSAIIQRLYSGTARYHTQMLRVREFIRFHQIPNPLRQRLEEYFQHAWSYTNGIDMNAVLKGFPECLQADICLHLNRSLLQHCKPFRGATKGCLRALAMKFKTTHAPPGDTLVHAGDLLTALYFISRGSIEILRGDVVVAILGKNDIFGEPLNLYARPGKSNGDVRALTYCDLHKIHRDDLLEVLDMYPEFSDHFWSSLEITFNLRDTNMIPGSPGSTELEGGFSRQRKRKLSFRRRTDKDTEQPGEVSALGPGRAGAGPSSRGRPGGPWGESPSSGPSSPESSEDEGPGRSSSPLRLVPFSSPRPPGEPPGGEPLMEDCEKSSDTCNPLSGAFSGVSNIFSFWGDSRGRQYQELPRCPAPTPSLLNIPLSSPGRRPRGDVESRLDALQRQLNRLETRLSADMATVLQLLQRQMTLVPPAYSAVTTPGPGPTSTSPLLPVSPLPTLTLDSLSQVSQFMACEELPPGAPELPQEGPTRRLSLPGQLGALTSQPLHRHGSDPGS
Chain of Cytochrome P450 2C19 (P33261 whole entry): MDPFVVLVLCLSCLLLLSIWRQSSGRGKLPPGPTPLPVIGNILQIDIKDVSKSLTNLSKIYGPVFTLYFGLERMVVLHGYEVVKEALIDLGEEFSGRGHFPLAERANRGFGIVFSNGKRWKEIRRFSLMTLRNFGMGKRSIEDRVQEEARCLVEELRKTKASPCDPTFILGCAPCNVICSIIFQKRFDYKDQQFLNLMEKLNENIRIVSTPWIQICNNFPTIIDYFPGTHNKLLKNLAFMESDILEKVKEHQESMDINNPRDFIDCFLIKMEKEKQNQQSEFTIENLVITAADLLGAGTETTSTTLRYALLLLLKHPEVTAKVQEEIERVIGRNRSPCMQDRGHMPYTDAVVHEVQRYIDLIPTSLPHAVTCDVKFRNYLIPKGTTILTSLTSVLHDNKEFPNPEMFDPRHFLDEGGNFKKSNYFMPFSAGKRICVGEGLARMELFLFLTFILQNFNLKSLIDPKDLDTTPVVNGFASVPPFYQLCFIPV

SMILES | IC50 [5] | IC50 [6] | IC50 [13] | further results
CC(C)S(=O)(=O)c1ccc(O[C@@H](C)C(F)(F)F)c(C(=O)N2Cc3cn(-c4ccccc4)nc3C2)c1 | > 10000 nM | 79 nM | 406 nM | microsomal CLint at 1 µM [1]: 1.8 µL/min/mg; IC50 [2]: > 10000 nM; efflux ratio at 1 h, 5 µM [3]: 2.2; IC50 [4]: > 10000 nM; microsomal CLint at 1 µM [7]: 10 µL/min/mg; IC50 [8]: > 10000 nM; IC50 [9]: > 10000 nM; IC50 [10]: > 10000 nM; Papp A→B at 1 h, 5 µM [11]: 56.6 ×10⁻⁶ cm/s; IC50 [12]: > 10000 nM; Papp B→A at 1 h, 5 µM [14]: 123 ×10⁻⁶ cm/s
CC(C)Oc1ccc(S(C)(=O)=O)cc1C(=O)N1Cc2cn(-c3ccccc3F)nc2C1 | > 10000 nM | 18 nM | 23 nM | 
CC(C)Oc1ccc(C#N)cc1C(=O)N1Cc2cn(-c3cncc(F)c3)nc2C1 | > 10000 nM | 183 nM | 113 nM | 
CS(=O)(=O)c1ccc(-c2cccc(F)c2)c(C(=O)N2Cc3cn(-c4ccccc4F)nc3C2)c1 | > 10000 nM | 12 nM | 10 nM | 
Cc1cc(-n2cc3c(n2)CN(C(=O)c2cc(S(C)(=O)=O)ccc2O[C@@H](C)C(F)(F)F)C3)ccn1 | > 10000 nM | 3 nM | 12 nM | 
Cc1cc(-n2cc3c(n2)CN(C(=O)c2cc(C#N)ccc2-c2cccc(F)c2)C3)ccn1 | > 10000 nM | 78 nM | 55 nM | 
CCS(=O)(=O)c1ccc(O[C@@H](C)C(F)(F)F)c(C(=O)N2Cc3cn(-c4ccccc4F)nc3C2)c1 | > 10000 nM | 9 nM | 29 nM | IC50 [2]: > 10000 nM; efflux ratio at 1 h, 5 µM [3]: 2.9; IC50 [4]: > 10000 nM; microsomal CLint at 1 µM [7]: 0.9 µL/min/mg; IC50 [8]: > 10000 nM; IC50 [9]: > 10000 nM; IC50 [10]: > 10000 nM; Papp A→B at 1 h, 5 µM [11]: 18 ×10⁻⁶ cm/s; IC50 [12]: > 10000 nM; Papp B→A at 1 h, 5 µM [14]: 51.9 ×10⁻⁶ cm/s
C[C@H](Oc1ccc(C#N)cc1C(=O)N1Cc2cn(C3CCCC3)nc2C1)C(F)(F)F |  | 331 nM | 210 nM | 
N#Cc1ccc(-c2cccc(F)c2)c(C(=O)N2Cc3cn(-c4cncc(F)c4)nc3C2)c1 | > 10000 nM | 619 nM |  | 
CC(C)Oc1ccc(C#N)cc1C(=O)N1Cc2cn(-c3ccccc3)nc2C1 | > 10000 nM | 161 nM | 105 nM | 
CS(=O)(=O)c1ccc(-c2cccc(F)c2)c(C(=O)N2Cc3cn(-c4cncc(F)c4)nc3C2)c1 | > 10000 nM | 10 nM | 6 nM | 
Cc1cc(-n2cc3c(n2)CN(C(=O)c2cc(S(C)(=O)=O)ccc2N2CCC(F)(F)CC2)C3)ccn1 | > 10000 nM | 4 nM | 7 nM | 

Now from value to molecule, other results behind:

IC50 [5] | IC50 [6] | IC50 [13] | SMILES | further results
> 10000 nM | 12 nM |  | CS(=O)(=O)c1ccc(N2CCC(F)(F)CC2)c(C(=O)N2Cc3cn(-c4ccccc4F)nc3C2)c1 | 
> 10000 nM | 12 nM | 23 nM | Cc1cccc(-n2cc3c(n2)CN(C(=O)c2cc(S(C)(=O)=O)ccc2O[C@@H](C)C(F)(F)F)C3)c1 | 
> 10000 nM | 27 nM | 18 nM | Cc1cc(-n2cc3c(n2)CN(C(=O)c2cc(C#N)ccc2O[C@@H](C)C(F)(F)F)C3)ccn1 | 
> 10000 nM | 4 nM |  | Cc1cc(-n2cc3c(n2)CN(C(=O)c2cc(C#N)ccc2N2CCC(F)(F)CC2)C3)ccn1 | 
> 10000 nM | 4 nM | 12 nM | CCS(=O)(=O)c1ccc(O[C@@H](C)C(F)(F)F)c(C(=O)N2Cc3cn(-c4ccnc(C)c4)nc3C2)c1 | 
> 10000 nM | 10 nM |  | CS(=O)(=O)c1ccc(N2CCC(F)(F)CC2)c(C(=O)N2Cc3cn(-c4cncc(F)c4)nc3C2)c1 | 
> 10000 nM | 8 nM | 27 nM | CCS(=O)(=O)c1ccc(O[C@@H](C)C(F)(F)F)c(C(=O)N2Cc3cn(-c4cncc(F)c4)nc3C2)c1 | microsomal CLint at 1 µM [1]: 5.4 µL/min/mg; IC50 [2]: > 10000 nM; efflux ratio at 1 h, 5 µM [3]: 17.2; IC50 [4]: > 10000 nM; microsomal CLint at 1 µM [7]: 1.3 µL/min/mg; IC50 [8]: > 10000 nM; IC50 [9]: > 10000 nM; IC50 [10]: > 10000 nM; Papp A→B at 1 h, 5 µM [11]: 5.8 ×10⁻⁶ cm/s; IC50 [12]: > 10000 nM; Papp B→A at 1 h, 5 µM [14]: 99 ×10⁻⁶ cm/s
> 10000 nM | 2 nM | 4 nM | Cc1cc(-n2cc3c(n2)CN(C(=O)c2cc(S(C)(=O)=O)ccc2-c2cccc(F)c2)C3)ccn1 | 
